Test results taken from patent US7927821B2, “Methods of screening for compounds which bind G protein-coupled receptors” (Takeda Pharmaceutical Company Limited, priority 2004, dated 2011).

Biological target: TGR25-GFP fusion protein (UniProt P42212+Q86Y34, F64L/I167T/S65C)
Assay: Internalization of the TGR25-GFP fusion protein expressed on CHO cells (confocal microscope)
Format: cell-based, human
Conditions: 100 μM AM251, 45 minutes, 37° C.

With `Cc1c(C(=O)NN2CCCCC2)nn(-c2ccc(Cl)cc2Cl)c1-c1ccc(I)cc1` [AM251, 1-(2,4-dichlorophenyl)-5-(4-iodophenyl)-4-methyl-N-piperidin-1-yl-1H-pyrazole-3-carboxamide] as the molecule, how does the “localization of the TGR25-GFP fusion protein (internalization)” value read?
Its value is “moved in part to the cytoplasm”.
